Laboratory results from PubChem BioAssay (NCI).
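Five concentrations, 48 hours, 96-well plates. The concentration for 50% growth inhibition is given as GI50. TGI marks complete inhibition of growth.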

Experiments:
Experiment in all cases: NCI-60 cell line screen, 48 h
[1] = system: CAKI-1 renal
[2] = system: HCC-2998 colon
[3] = system: HCT-15 colon
[4] = system: HS 578T breast
[5] = system: K-562 leukemia
[6] = system: RPMI-8226 leukemia
[7] = system: RXF 393 renal
[8] = system: SN12C renal
[9] = system: SW-620 colon
[10] = system: UACC-62 melanoma

`O=C1c2ccccc2C(=O)c2c1ccc1c3ccccc3n(-c3ccccc3)c21` was tested, and the TGI [1] was 35.1 µM, the TGI [2] was 72.6 µM and the TGI [3] was 32.6 µM. For the same compound, the TGI [4] was 42.7 µM, the TGI [5] was 29.8 µM and the TGI [6] was 25.8 µM. The TGI [7] was 34.2 µM, the TGI [8] was 32.3 µM and the TGI [9] was 48 µM. It also gave a TGI [10] of 24.1 µM.
For `COc1cc2c3c(c4ccc(O)cc4c2cc1OC)[C@@H](O)[C@@H]1CCCN1C3`, the TGI [1] was 0.00285 µM, the TGI [2] was 0.002 µM and the TGI [3] was 0.204 µM. For the same compound, the TGI [4] was 0.00566 µM, the TGI [6] was 0.00384 µM and the TGI [7] was 0.0029 µM. The TGI [8] was 0.00932 µM, the TGI [9] was 1.25 µM and the TGI [10] was 0.0807 µM.
`CC[C@H](C)[C@H](NC(=O)CN(C)C)C(=O)N(C)[C@H](C[C@@H](OC(C)=O)c1nc(C(=O)NC23C4C5C2C2C3C4C52C(=O)OC)cs1)C(C)C` (stereo partly specified) was tested, and the GI50 [1] was 7.13 µM, the TGI [1] was greater than 33.2 µM and the GI50 [2] was 0.631 µM. The TGI [2] was greater than 33.2 µM, the GI50 [3] was 1.04 µM and the TGI [3] was greater than 33.2 µM. For the same compound, the GI50 [4] was 0.176 µM, the TGI [4] was greater than 33.2 µM and the GI50 [5] was 0.138 µM. The TGI [5] was greater than 33.2 µM, the GI50 [6] was 0.115 µM and the TGI [6] was greater than 11.4 µM. The GI50 [7] was 0.387 µM, the TGI [7] was greater than 33.2 µM and the GI50 [8] was 0.276 µM. For the same compound, the TGI [8] was greater than 18.8 µM, the GI50 [9] was 0.226 µM and the TGI [9] was greater than 33.2 µM. The GI50 [10] was 0.19 µM and the TGI [10] was greater than 33.2 µM.
Work on `O=C(NCCN1CCOCC1)c1cc2c(Oc3ccc(NC(=O)C4(C(=O)Nc5ccc(F)cc5)CC4)cc3)ccnc2[nH]1` yielded a GI50 [1] of 13.7 µM, a TGI [1] greater than 100 µM and a GI50 [2] of 15.3 µM. It also gave a TGI [2] of 51.9 µM, a GI50 [3] of 12.5 µM and a TGI [3] greater than 100 µM. The GI50 [4] was 1.32 µM, the TGI [4] was greater than 71.1 µM and the GI50 [5] was 4.27 µM. It also gave a TGI [5] of 42.2 µM, a GI50 [6] of 9.45 µM and a TGI [6] of 42.2 µM. It also gave a GI50 [7] of 1.84 µM, a TGI [7] of 19.8 µM and a GI50 [8] of 1.44 µM. For the same compound, the TGI [8] was greater than 100 µM, the GI50 [9] was 15.3 µM and the TGI [9] was greater than 100 µM. It also gave a GI50 [10] of 4.26 µM and a TGI [10] of 22.7 µM.
`COc1cc2c(c3oc4c(O)cccc4c(=O)c13)CC(C(C)(O)CCl)O2` (stereo unspecified) was tested, and the TGI [1] was 7.68 µM, the TGI [2] was 8.35 µM and the TGI [3] was greater than 27.2 µM. For the same compound, the TGI [4] was 6.89 µM, the TGI [6] was 0.655 µM and the TGI [7] was 2.43 µM. For the same compound, the TGI [8] was 2.4 µM, the TGI [9] was 3.74 µM and the TGI [10] was 2.3 µM.
Compound `COc1cccc(/C=C\C(=O)c2ccccc2)c1` has a GI50 [1] of 9.66 µM, a TGI [1] of 24.8 µM and a GI50 [2] of 8.72 µM. For the same compound, the TGI [2] was 25.7 µM, the GI50 [3] was 2.4 µM and the TGI [3] was 10.1 µM. It also gave a GI50 [4] of 4.15 µM, a TGI [4] of 27.7 µM and a GI50 [5] of 6.27 µM. For the same compound, the TGI [5] was greater than 100 µM, the GI50 [6] was 16.2 µM and the TGI [6] was greater than 100 µM. It also gave a GI50 [7] of 2.46 µM, a TGI [7] of 5.34 µM and a GI50 [8] of 8.97 µM. It also gave a TGI [8] of 25.5 µM, a GI50 [9] of 2.7 µM and a TGI [9] of 7.31 µM. The GI50 [10] was 13.3 µM and the TGI [10] was 29 µM.
With `Nc1nc(N)c(CCCCc2ccc([N+](=O)[O-])cc2)c(N)n1` the TGI [1] was greater than 100 µM, the TGI [2] was greater than 100 µM and the TGI [3] was greater than 100 µM. For the same compound, the TGI [4] was greater than 100 µM, the TGI [5] was greater than 100 µM and the TGI [6] was greater than 100 µM. The TGI [7] was greater than 100 µM, the TGI [8] was greater than 100 µM and the TGI [9] was greater than 100 µM. The TGI [10] was greater than 100 µM.
For `COc1ccc([C@@H]2[C@@H](Cl)C(=O)N2c2cc(OC)c(OC)c(OC)c2)cc1C`, the GI50 [2] was 0.347 µM, the TGI [2] was 58.4 µM and the GI50 [3] was 0.0535 µM. It also gave a TGI [3] greater than 100 µM, a GI50 [4] of 0.049 µM and a TGI [4] of 77.4 µM. For the same compound, the GI50 [5] was 0.0456 µM, the TGI [5] was greater than 100 µM and the GI50 [6] was 0.0641 µM. The TGI [6] was 28.3 µM, the GI50 [7] was 0.0313 µM and the TGI [7] was 20.6 µM. The GI50 [8] was 0.0999 µM, the TGI [8] was 21.9 µM and the GI50 [9] was 0.0462 µM. For the same compound, the TGI [9] was 34.5 µM, the GI50 [10] was 0.0607 µM and the TGI [10] was 41.1 µM.
Compound `COC(=O)[C@]12CC[C@@H](C)[C@H](C)[C@@H]1C1=CC[C@@H]3[C@@]4(C)C[C@@H](OC(C)=O)[C@H](OC(C)=O)[C@@](C)(COC(C)=O)[C@@H]4[C@H](O)C[C@@]3(C)[C@]1(C)CC2` has a GI50 [1] of 0.93 µM, a TGI [1] greater than 100 µM and a GI50 [2] of 2.81 µM. It also gave a TGI [2] greater than 100 µM, a GI50 [3] of 0.43 µM and a TGI [3] greater than 100 µM. It also gave a GI50 [4] of 8.15 µM, a TGI [4] greater than 100 µM and a GI50 [5] of 0.356 µM. For the same compound, the TGI [5] was greater than 100 µM, the GI50 [6] was 1.04 µM and the TGI [6] was greater than 100 µM. The GI50 [7] was 6.88 µM, the TGI [7] was 61.4 µM and the GI50 [9] was 0.892 µM. For the same compound, the TGI [9] was greater than 100 µM.
`N#Cc1ccc2c(-c3ccnc(NC4CC4)n3)c(-c3ccc(F)cc3)nn2c1` was tested, and the GI50 [1] was 14.6 µM, the TGI [1] was greater than 25 µM and the GI50 [2] was greater than 25 µM. It also gave a TGI [2] greater than 25 µM, a GI50 [3] greater than 25 µM and a TGI [3] greater than 25 µM. For the same compound, the GI50 [4] was greater than 25 µM, the TGI [4] was greater than 25 µM and the GI50 [5] was greater than 25 µM. For the same compound, the TGI [5] was greater than 25 µM, the GI50 [6] was greater than 25 µM and the TGI [6] was greater than 25 µM. It also gave a GI50 [7] greater than 25 µM, a TGI [7] greater than 25 µM and a GI50 [8] greater than 25 µM. It also gave a TGI [8] greater than 25 µM, a GI50 [9] greater than 25 µM and a TGI [9] greater than 25 µM. For the same compound, the GI50 [10] was greater than 25 µM and the TGI [10] was greater than 25 µM.
With `ClC/C=C/CSc1ncnc2nc[nH]c12` the GI50 [1] was greater than 100 µM, the TGI [1] was greater than 100 µM and the GI50 [2] was greater than 100 µM. It also gave a TGI [2] greater than 100 µM, a GI50 [3] greater than 100 µM and a TGI [3] greater than 100 µM. For the same compound, the GI50 [4] was greater than 100 µM, the TGI [4] was greater than 100 µM and the GI50 [5] was greater than 100 µM. It also gave a TGI [5] greater than 100 µM, a GI50 [6] greater than 100 µM and a TGI [6] greater than 100 µM. For the same compound, the GI50 [7] was greater than 100 µM, the TGI [7] was greater than 100 µM and the GI50 [8] was greater than 100 µM. The TGI [8] was greater than 100 µM, the GI50 [9] was greater than 100 µM and the TGI [9] was greater than 100 µM. The GI50 [10] was greater than 100 µM and the TGI [10] was greater than 100 µM.
For `Oc1ccccc1/C=N\NC(=S)Nc1ccc(F)cc1`, the GI50 [1] was 1.57 µM, the TGI [1] was greater than 24.3 µM and the GI50 [2] was 3.28 µM. For the same compound, the TGI [2] was 28.5 µM, the GI50 [3] was 0.529 µM and the TGI [3] was greater than 100 µM. It also gave a GI50 [4] of 5.14 µM, a TGI [4] greater than 100 µM and a GI50 [5] of 0.582 µM. The TGI [5] was greater than 100 µM, the GI50 [6] was 1.34 µM and the GI50 [7] was 2.63 µM. For the same compound, the TGI [7] was 65.8 µM, the GI50 [8] was 2.37 µM and the TGI [8] was greater than 93.7 µM. The GI50 [9] was 1.17 µM, the TGI [9] was greater than 100 µM and the GI50 [10] was 0.95 µM. For the same compound, the TGI [10] was 4 µM.
Work on `COc1ccc(/C(=C(\c2ccccc2)[N+](=O)[O-])c2ccc(OCCN3CCCC3)cc2)cc1` yielded a GI50 [1] of 2.68 µM, a TGI [1] of 9.87 µM and a GI50 [2] of 4.16 µM. It also gave a TGI [2] of 15.5 µM, a GI50 [3] of 1.49 µM and a TGI [3] of 4.19 µM. For the same compound, the GI50 [4] was 2.32 µM, the TGI [4] was 10.9 µM and the GI50 [5] was 1.1 µM. The TGI [5] was 6.14 µM, the GI50 [6] was 2.53 µM and the TGI [6] was 10.6 µM. The GI50 [7] was 1.65 µM, the TGI [7] was 3.76 µM and the GI50 [8] was 7.79 µM. It also gave a TGI [8] of 22.4 µM, a GI50 [9] of 1.74 µM and a TGI [9] of 4.19 µM. It also gave a GI50 [10] of 1.93 µM and a TGI [10] of 4.24 µM.
With `O=C1c2ccc3c4c(ccc(c24)C(=O)N1CCCCO)C(=O)N(CCCCO)C3=O` the GI50 [1] was 2.27 µM, the TGI [1] was 13.6 µM and the GI50 [2] was 1.91 µM. For the same compound, the TGI [2] was 10.5 µM, the GI50 [3] was 1.55 µM and the TGI [3] was 10.5 µM. The GI50 [4] was 5.14 µM, the TGI [4] was 24 µM and the GI50 [5] was 2.54 µM. The TGI [5] was greater than 100 µM, the GI50 [6] was 2.79 µM and the TGI [6] was 14.3 µM. For the same compound, the GI50 [7] was 2.08 µM, the TGI [7] was 10.7 µM and the GI50 [8] was 1.88 µM. The TGI [8] was 6.63 µM, the GI50 [9] was 1.86 µM and the TGI [9] was 10.1 µM. The GI50 [10] was 0.726 µM and the TGI [10] was 2.28 µM.
